Tests used:
[1] = molecular target: T1, Glycylpeptide N-tetradecanoyltransferase (Plasmodium falciparum, UniProt Q9U419); assay: Inhibition of recombinant Plasmodium falciparum NMT
T1 sequence (Q9U419 whole entry): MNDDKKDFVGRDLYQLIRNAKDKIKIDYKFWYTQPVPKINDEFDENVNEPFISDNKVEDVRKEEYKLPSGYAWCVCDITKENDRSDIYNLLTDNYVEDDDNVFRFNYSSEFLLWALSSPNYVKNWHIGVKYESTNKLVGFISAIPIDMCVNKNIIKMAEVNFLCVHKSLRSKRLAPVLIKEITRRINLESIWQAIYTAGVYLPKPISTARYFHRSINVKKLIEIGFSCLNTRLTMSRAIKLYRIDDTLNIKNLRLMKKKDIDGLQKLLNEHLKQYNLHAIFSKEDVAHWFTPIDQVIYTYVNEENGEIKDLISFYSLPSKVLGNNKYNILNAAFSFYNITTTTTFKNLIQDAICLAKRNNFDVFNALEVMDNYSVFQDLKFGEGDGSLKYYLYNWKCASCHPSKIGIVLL

[2] = molecular target: T2, Glycylpeptide N-tetradecanoyltransferase 1 (Homo sapiens, UniProt P30419); assay: Inhibition of recombinant human NMT
T2 sequence (P30419 whole entry): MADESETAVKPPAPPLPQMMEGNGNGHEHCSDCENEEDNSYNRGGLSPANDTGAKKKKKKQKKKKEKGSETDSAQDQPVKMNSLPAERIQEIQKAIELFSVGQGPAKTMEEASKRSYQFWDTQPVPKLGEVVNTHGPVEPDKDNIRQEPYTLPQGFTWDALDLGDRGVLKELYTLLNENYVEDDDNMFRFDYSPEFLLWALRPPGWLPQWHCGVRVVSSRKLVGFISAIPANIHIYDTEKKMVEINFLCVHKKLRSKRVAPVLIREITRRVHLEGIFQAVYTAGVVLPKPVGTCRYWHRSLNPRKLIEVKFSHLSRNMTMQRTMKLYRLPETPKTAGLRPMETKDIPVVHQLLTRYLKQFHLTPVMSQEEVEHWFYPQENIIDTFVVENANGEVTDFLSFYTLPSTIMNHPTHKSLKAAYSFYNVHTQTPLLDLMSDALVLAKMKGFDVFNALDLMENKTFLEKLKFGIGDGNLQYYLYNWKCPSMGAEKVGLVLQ

[3] = molecular target: T3, Glycylpeptide N-tetradecanoyltransferase (Plasmodium vivax (strain Salvador I), UniProt A5K1A2); assay: Inhibition of recombinant Plasmodium vivax NMT
T3 sequence (A5K1A2 whole entry): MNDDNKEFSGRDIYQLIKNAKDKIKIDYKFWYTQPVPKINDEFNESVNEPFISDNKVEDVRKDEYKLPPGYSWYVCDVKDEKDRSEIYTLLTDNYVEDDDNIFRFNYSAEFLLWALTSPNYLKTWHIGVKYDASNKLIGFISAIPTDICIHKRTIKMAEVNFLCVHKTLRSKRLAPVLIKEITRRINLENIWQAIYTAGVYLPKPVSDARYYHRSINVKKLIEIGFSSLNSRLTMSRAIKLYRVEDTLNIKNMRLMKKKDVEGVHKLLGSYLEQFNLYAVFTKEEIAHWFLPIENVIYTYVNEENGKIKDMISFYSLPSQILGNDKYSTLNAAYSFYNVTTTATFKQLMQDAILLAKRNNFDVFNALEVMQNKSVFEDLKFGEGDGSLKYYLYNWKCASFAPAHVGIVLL

[4] = Inhibition of full length Caenorhabditis elegans NMT expressed in Escherichia coli incubated for 10 mins by liquid scintillation analysis
[5] = Inhibition of full length Brugia malayi NMT expressed in Escherichia coli incubated for 10 mins by liquid scintillation analysis
[6] = molecular target: T3, Glycylpeptide N-tetradecanoyltransferase; assay: Binding affinity to Plasmodium vivax NMT assessed as inhibition constant using YnMyr-CoA as substrate
[7] = molecular target: T1, Glycylpeptide N-tetradecanoyltransferase; assay: Binding affinity to Plasmodium falciparum NMT assessed as inhibition constant using GSNKSKPKDASQRRR-NH2 as peptide substrate

**Q.** With `NCCCCCCCCCC(=O)N[C@@H](CO)C(=O)N[C@@H](CCCCN)C(=O)NCCC1CCCCC1` as the molecule, how does the IC50 [1] read?
**A.** 24.3 µM

**Q.** And the IC50 [2]?
**A.** 0.06 µM

**Q.** And the IC50 [3]?
**A.** 0.68 µM

**Q.** What does the source list for `Cc1nn(C)c(CC(C)C)c1NS(=O)(=O)c1c(Cl)cc(-c2cccc(C(C)(C)N)c2)cc1Cl`?
**A.** IC50 [4]: 0.01 µM; IC50 [5]: 2 µM

**Q.** For `Cc1nn(C)c(C)c1Cc1nnc(-c2sc3ccccc3c2NC2CCNCC2)o1`, which Ki [6] is on record?
**A.** 0.0027 µM

**Q.** What about the Ki [7] of the same molecule?
**A.** 0.008 µM

From ChEMBL document CHEMBL5634069, “Exploring N-myristoyltransferase as a promising drug target against parasitic neglected tropical diseases” (Eur J Med Chem, 2023)
